Data published in US20220409649A1, “a-GLUCOSIDASE INHIBITOR, INVERTASE INHIBITOR, AND SUGAR ABSORPTION INHIBITOR” (Kinki University, priority 2019, published 2022).

Columns and labels:
[1] = Oral glucose tolerance testing using sucrose, OLETF rats with diabetes; type: in vivo; details: oral co-administration with sucrose, FIG. 8
Protocol: (§1) Glucose tolerance testing of normal Wistar type rats and OLETF rats with diabetes was performed using the compound (I). After fasted for 14 hours, glucose was loaded, and blood taken from tail veins of the rats was subjected to various tests.
(§2) An aqueous solution containing […] of sucrose (hereinafter, also referred to as “A Liquid”) and an aqueous solution containing […] of sucrose and 0.085 mg/ml of the compound (I) (hereinafter, also referred to as “B Liquid”) were prepared. Six normal 7-week-old rats (male) were divided into two groups. In one group, the A liquid was orally administered such that an amount of sucrose was 1.5 g/kg based on the rat body weight. In the other group, the B liquid was orally administered such that the amount of sucrose was 1.5 g/kg based on the rat body weight. Blood was taken from the tail veins of the rats before the administration and in 30 minutes, 60 minutes, 90 minutes, and 120 minutes after the administration, and then plasma was obtained by centrifugation. For the obtained plasma, glucose and insulin were quantified.

invertase = invertase (Saccharomyces cerevisiae, UniProt P00724); assay: Invertase inhibition analysis by compound (I); type: biochemical
Sequence of invertase (P00724 20-532): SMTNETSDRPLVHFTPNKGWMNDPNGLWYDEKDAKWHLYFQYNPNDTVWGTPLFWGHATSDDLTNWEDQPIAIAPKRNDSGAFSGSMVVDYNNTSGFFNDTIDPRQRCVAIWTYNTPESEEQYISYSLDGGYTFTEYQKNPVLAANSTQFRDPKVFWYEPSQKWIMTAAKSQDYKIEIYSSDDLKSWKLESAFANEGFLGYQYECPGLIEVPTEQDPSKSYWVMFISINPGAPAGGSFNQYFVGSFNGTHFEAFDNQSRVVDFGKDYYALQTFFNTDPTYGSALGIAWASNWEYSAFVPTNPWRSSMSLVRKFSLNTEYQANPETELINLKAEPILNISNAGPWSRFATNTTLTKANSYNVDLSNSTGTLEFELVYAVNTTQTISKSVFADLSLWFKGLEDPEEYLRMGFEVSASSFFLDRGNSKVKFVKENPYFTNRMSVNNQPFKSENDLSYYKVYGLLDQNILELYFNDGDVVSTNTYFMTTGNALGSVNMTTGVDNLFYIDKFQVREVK
Protocol: For invertase inhibition analysis, 100 μg of sucrose as a substrate and 1 μg, 10 μg, or 100 μg of the compound (I) being the invertase inhibitor were added to 50 μL of 100 mmol/L acetate buffer solution, and pre-incubation was performed at 37° C. for five minutes. Thereafter, 50 μL of 0.2 U/mL invertase solution was added, and incubation was performed for 15 minutes. Thereafter, 10 μL of the reaction mixture was heated in a water bath to inactivate the enzyme and evaporated and dried, and the PMP derivatization was performed. A substance subjected to the enzyme reaction under the same conditions without adding the inhibitor was used as a blank. In each sample, the concentration required for the compound (I) to inhibit 50% of the enzyme was defined as IC50. An inhibition rate by the compound (I) was calculated using a following equation.
Inhibition rate (%)=[D1−(D2−D3)/1]×100 (Equation 1)
D1: Peak area of glucose in blank sample
D2: Peak area of glucose in each sample after enzyme reaction
D3: Peak area of glucose contained in inhibitor as an impurity
The IC50 value was calculated from a dose-response curve of the compound (I) used as the inhibitor.

[2] = target: T1, isomaltase (isomaltose as substrate) (Rattus norvegicus, UniProt P23739); assay: Screening of enzyme inhibition, rat intestinal acetone powder crude enzyme, isomaltose as substrate; type: biochemical; details: 10 μL inhibitor solution (3.4 mg/mL diluted 100 times), five hours
T1 construct: the supernatant was used as a purified enzyme; from tissue; host or cells: rat intestine (acetone powder, supernatant of homogenate)
T1 sequence (P23739 1-1013 limits assumed): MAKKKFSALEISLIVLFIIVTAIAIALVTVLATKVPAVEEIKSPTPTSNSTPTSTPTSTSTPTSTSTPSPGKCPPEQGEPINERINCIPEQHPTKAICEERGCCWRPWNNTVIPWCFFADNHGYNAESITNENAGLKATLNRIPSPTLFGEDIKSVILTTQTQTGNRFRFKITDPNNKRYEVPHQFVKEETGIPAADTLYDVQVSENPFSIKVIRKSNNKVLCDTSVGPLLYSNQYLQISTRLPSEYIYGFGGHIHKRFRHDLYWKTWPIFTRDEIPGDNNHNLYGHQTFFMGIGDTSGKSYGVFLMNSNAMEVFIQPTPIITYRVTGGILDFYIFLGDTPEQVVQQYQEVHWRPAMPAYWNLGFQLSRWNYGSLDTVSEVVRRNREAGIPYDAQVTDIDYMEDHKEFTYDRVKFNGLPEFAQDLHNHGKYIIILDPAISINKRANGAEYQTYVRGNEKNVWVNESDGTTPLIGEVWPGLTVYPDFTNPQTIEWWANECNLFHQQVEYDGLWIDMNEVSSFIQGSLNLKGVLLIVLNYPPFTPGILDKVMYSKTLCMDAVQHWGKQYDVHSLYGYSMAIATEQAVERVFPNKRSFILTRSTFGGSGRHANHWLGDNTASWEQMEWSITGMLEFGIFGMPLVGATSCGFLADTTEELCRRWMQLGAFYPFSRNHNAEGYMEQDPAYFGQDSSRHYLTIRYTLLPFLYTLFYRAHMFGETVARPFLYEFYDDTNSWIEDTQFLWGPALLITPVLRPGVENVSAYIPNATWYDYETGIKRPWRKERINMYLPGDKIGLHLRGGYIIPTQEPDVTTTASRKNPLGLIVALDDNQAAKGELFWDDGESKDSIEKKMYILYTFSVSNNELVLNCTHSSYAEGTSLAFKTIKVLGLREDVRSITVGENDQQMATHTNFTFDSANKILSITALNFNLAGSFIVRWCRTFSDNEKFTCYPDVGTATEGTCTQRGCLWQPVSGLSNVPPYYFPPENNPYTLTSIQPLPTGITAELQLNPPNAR
T1 sequence (P23739 1014-1841 limits assumed): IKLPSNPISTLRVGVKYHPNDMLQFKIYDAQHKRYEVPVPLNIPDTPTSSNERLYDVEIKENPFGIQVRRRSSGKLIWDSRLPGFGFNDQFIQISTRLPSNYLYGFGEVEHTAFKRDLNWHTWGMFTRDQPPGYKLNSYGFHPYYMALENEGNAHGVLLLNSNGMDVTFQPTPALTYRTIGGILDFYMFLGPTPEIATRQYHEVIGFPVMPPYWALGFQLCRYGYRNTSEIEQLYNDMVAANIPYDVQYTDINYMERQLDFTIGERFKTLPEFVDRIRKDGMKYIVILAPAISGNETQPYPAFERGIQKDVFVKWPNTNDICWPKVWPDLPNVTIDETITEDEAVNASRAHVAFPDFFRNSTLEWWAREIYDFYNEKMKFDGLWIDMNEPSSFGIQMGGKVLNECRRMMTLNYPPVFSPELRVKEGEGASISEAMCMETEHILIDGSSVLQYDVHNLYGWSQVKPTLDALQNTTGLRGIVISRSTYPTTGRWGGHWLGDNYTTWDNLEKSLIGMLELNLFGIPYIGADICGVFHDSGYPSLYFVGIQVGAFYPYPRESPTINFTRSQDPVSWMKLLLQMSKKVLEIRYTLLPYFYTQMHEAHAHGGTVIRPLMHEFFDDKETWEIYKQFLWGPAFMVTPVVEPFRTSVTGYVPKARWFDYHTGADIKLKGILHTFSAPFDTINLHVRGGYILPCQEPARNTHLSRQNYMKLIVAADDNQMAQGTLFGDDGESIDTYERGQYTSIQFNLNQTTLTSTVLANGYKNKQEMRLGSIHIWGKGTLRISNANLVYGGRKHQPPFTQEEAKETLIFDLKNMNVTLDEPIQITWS
Protocol: (§3) As a crude enzyme mixture, 50 mg of rat intestinal acetone powder was added to 450 μL of 50 mmol/L phosphate buffer solution (pH 6.0), the mixture was stirred for 30 seconds, and then homogenized. Thereafter, the mixture was centrifuged (10000 rpm, 4° C., 20 minutes), and the supernatant was used as a purified enzyme (50 mg/450 μL). Sucrose and two types of glucose disaccharides (maltose and isomaltose) having different bonds were used as substrates. 3.4 mg of each of the two types of substrates was dissolved in 100 μL of phosphate buffer solution, and each solution was used as a substrate solution. A solution obtained by dissolving 3.4 mg of the compound (I) as a competitive inhibitor in 1 mL of phosphate buffer solution and diluting 100 times, was used as an inhibitor solution. 100 μL of the substrate solution and 10 μL of the inhibitor solution were mixed, and pre-incubation was performed for five minutes. Then, 90 μL of an enzyme solution was added to start incubation. Five hours later, 10 μL of the reaction solution was heated in a water bath for 10 minutes to stop the reaction, followed by the PMP derivatization, and then the capillary electrophoresis. An enzyme reaction solution under the same conditions without the inhibitor was used as a blank. The inhibition rate was calculated for each substrate using the same equation as that in the invertase inhibition analysis.

[3] = system: maltase (maltose as substrate); assay: Screening of enzyme inhibition, rat intestinal acetone powder crude enzyme, maltose as substrate; type: biochemical; details: 10 μL inhibitor solution (3.4 mg/mL diluted 100 times), five hours
Protocol: as §3

[4] = Oral glucose tolerance testing using sucrose, normal rats; type: in vivo, normal Wistar type rats; details: oral co-administration with sucrose 1.5 g/kg, FIG. 7
Protocol: as §1, §2

[5] = target: T2, sucrase (sucrose as substrate) (Rattus norvegicus, UniProt P23739); assay: Screening of enzyme inhibition, rat intestinal acetone powder crude enzyme, sucrose as substrate; type: biochemical; details: 10 μL inhibitor solution (3.4 mg/mL diluted 100 times), five hours
T2 construct: the supernatant was used as a purified enzyme; from tissue; host or cells: rat intestine (acetone powder, supernatant of homogenate)
T2 sequence (P23739 1-1013 limits assumed): as the sequence (P23739 1-1013 limits assumed) above
T2 sequence (P23739 1014-1841 limits assumed): as the sequence (P23739 1014-1841 limits assumed) above
Protocol: as §3

[6] = system: Maltase α-(1-4)glucosidase; assay: Maltase inhibition analysis by compound (I) (Table 2); type: biochemical

OCC1OC(CO)(OCC2OC(O)C(O)C(O)C2O)C(O)C1O (centres unmarked) [compound (I), Maplebiose]
changes with time of insulin [1]: similar
plasma glucose value relative to rats not administered with the compound (I) [1]: about 50%
Peak response (Glc) (invertase; 1 μg inhibitor): 18.2
Peak response (Glc) (invertase; 10 μg inhibitor): 17.2
Peak response (Glc) (invertase; 100 μg inhibitor): 23.1
Inhibition rate [2]: 3.3%
Inhibition rate [3]: 9.4%
changes with time of insulin [4]: similar
plasma glucose value vs rats not administered with the compound (I) [4]: significantly lower
Inhibition rate [5]: 12.3%
Inhibition (%) ([6]; 1 μg inhibitor): 39.1%
Inhibition (%) ([6]; 10 μg inhibitor): 49.4%
Inhibition (%) ([6]; 100 μg inhibitor): 54.2%
IC50 ([6]; calculated using a straight line from concentrations and inhibition rates): 1.72 mM
